# Test results published in patent US11369589B2, “Modulator of indoleamine 2,3-dioxygenase, preparation method and use thereof” (NANJING CAREPHAR SHENGHUI PHARMACEUTICAL CO., LTD., priority 2018, dated 2022).
# Assays:
# Format in all cases: in vitro ADME
# [1] = In vitro plasma conversion experiment of target compounds (Embodiment 7.5); conditions: rat, 2 mg/mL (as Epacadostat equivalents)
# Procedure: (§1) Mobile phase: acetonitrile (50% to 80%) and water gradient elution.
# (§2) Flow rate: 1 mL/min at a column temperature of 25° C.
# (§3) Detection wavelength: 254 nm at a sample size of 10 μL.
# The target compounds were dissolved into a DMSO solvent. […] 20 μL of the solution was taken and added into 1.18 mL of fresh rat blank plasma, and incubation was carried out at 37° C. to obtain a sample.
# (§4) 120 μL of the sample was precisely sucked at a specified time point each time. 120 μL of acetonitrile was added. High-speed vortex mixing was performed for 2 min. Centrifugation was performed at 10000 r/min for 15 min. Supernatant was taken and filtered by a 13 mm 0.45 μm filter membrane, and then determination could be performed.
# (§5) Incubation was performed at 37° C. 120 μL of sample was taken at different time points respectively. Sample pretreatment was performed according to the method of 7.3. Determination was performed by an HPLC method. A peak area was recorded, and a drug concentration was calculated.
# According to the method of 7.4, we performed in vitro plasma conversion experiment on the target compounds to test conversion rates of the compounds converted into the Epacadostat at different time points.
# [2] = Original drug Epacadostat plasma stability test (Embodiment 7.4); conditions: rat plasma, 37° C.
# Procedure: Liquid chromatograph: Waters 2489UV/Visible Detector, Waters 1525BinaryHPLC Pump.
# as §1, §2, §3
# (§6) Under the condition of no mobile phase interference, the Epacadostat retention time was about 20 min.
# as §4
# as §5, with “20 μL of DMSO solution (120 mg/mL) of Epacadostat was taken and added into 1.18 mL of fresh rat blank plasma. Incubation” for “Incubation”
# [3] = Original drug Epacadostat plasma stability test (Embodiment 14, 6.4); conditions: rat plasma, 37° C.
# Procedure: Liquid chromatograph: Waters 2489UV/Visible Detector, Waters 1525Binary HPLC Pump.
# as §1, §2, §3, §6, §4
# as §5, with “20 μL of DMSO solution (120 mg/mL) of Epacadostat was taken and added into 1.18 mL of fresh rat blank plasma. Incubation” for “Incubation”, “6.3.” for “7.3.”
Compound,Conversion rate into Epacadostat ([1]; 0.5 h) [%],Conversion rate into Epacadostat ([1]; 1 h) [%],Conversion rate into Epacadostat ([1]; 2 h) [%],Conversion rate into Epacadostat ([1]; 3 h) [%],Conversion rate into Epacadostat ([1]; 6 h) [%],Conversion rate into Epacadostat ([1]; 12 h) [%],Epacadostat concentration in plasma ([2]; time 1 h) [mg/mL],Epacadostat concentration in plasma ([2]; time 3 h) [mg/mL],Epacadostat concentration in plasma ([2]; time 6 h) [mg/mL],Epacadostat concentration in plasma ([2]; time 24 h) [mg/mL],Stability in plasma (in words) ([2]; up to 24 h),Epacadostat concentration in plasma ([3]; time 1 h) [mg/mL],Epacadostat concentration in plasma ([3]; time 3 h) [mg/mL],Epacadostat concentration in plasma ([3]; time 6 h) [mg/mL],Epacadostat concentration in plasma ([3]; time 24 h) [mg/mL],Stability in plasma (in words) ([3]; up to 24 h)
CCCC(=O)O/N=C(\Nc1ccc(F)c(Br)c1)c1nonc1NCCNS(=O)(=O)N=Cc1ccc(N(C)C)cc1 [II-3],31.1,43.1,58.3,70.3,88.3,98.3,,,,,,,,,,
NS(=O)(=O)NCCNc1nonc1C(=NO)Nc1ccc(F)c(Br)c1 [Epacadostat],,,,,,,1.22,1.20,1.24,1.20,can stably exist in the plasma,1.22,1.20,1.24,1.20,can stably exist in the plasma
CC(C)C(=O)O/N=C(\Nc1ccc(F)c(Br)c1)c1nonc1NCCNS(=O)(=O)N=Cc1cccs1 [II-1],33.7,56.3,77.2,87.2,93.8,100,,,,,,,,,,
CCCCC(=O)O/N=C(\Nc1ccc(F)c(Br)c1)c1nonc1NCCNS(=O)(=O)N=Cc1ccc(Cl)s1 [II-4],47.2,49.0,51.6,75.2,89.6,100,,,,,,,,,,
